Experimental data as given in patent US20250230193A1, “CYCLIC COMPOUND HAVING SELECTIVE KRAS INHIBITORY EFFECT ON HRAS AND NRAS” (CHUGAI SEIYAKU KABUSHIKI KAISHA, priority 2022, published 2025).
Where a SMILES comes first, the peptide text is derived from it. Bridges are numbered along the chain shown (N, C = ends). [ ]: non-standard residue; d: D form. hPhe(3-Cl-4-CF3) = N[C@@H](CCc1ccc(C(F)(F)F)c(Cl)c1)C(=O)O; NPrPhe(4-CF3) = CCCN[C@@H](Cc1ccc(C(F)(F)F)cc1)C(=O)O; NMeGly(cPent) = CN[C@H](C(=O)O)C1CCCC1; NMeD = CN[C@@H](CC(=O)O)C(=O)O; NMeL = CN[C@@H](CC(C)C)C(=O)O; Ac4c = NC1(C(=O)O)CCC1; Sar = CNCC(=O)O

Assays:
[1] = biological target: GDP-bound NRAS wild-type protein (Homo sapiens, UniProt P01111); experiment: Binding to NRAS by surface plasmon resonance (SPR), Single Cycle Kinetics; conditions: for NRAS/KRAS (ratio of KD value with respect to NRAS to KD value with respect to KRAS): GDP-bound NRAS wild-type vs GDP-bound KRAS wild-type
Sequence of GDP-bound NRAS wild-type protein (P01111 whole entry): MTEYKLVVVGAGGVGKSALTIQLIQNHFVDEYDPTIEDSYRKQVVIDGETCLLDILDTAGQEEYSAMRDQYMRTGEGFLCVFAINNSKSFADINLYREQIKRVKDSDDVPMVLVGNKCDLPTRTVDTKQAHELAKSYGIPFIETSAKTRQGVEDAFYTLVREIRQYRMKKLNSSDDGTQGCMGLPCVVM

[2] = biological target: GDP-bound HRAS wild-type protein (Homo sapiens, UniProt P01112); experiment: Binding to HRAS by surface plasmon resonance (SPR), Single Cycle Kinetics; conditions: for HRAS/KRAS (ratio of KD value with respect to HRAS to KD value with respect to KRAS): GDP-bound HRAS wild-type vs GDP-bound KRAS wild-type
Sequence of GDP-bound HRAS wild-type protein (P01112 whole entry): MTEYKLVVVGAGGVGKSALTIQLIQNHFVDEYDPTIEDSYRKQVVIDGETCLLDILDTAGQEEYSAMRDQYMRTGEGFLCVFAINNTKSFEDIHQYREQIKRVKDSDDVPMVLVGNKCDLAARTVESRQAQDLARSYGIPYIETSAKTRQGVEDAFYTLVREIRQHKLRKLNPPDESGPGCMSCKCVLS

`CCO[C@@H]1C[C@H]2C(=O)NC3(CCC3)C(=O)N(C)[C@@H](C3CCCC3)C(=O)N(C)[C@H](C(=O)N(C)CC)CC(=O)N(C)[C@@H](C)C(=O)N[C@@H]([C@@H](C)CC)C(=O)N(C)CC(=O)N(C)[C@H]3C/C=C\CCN(C3=O)[C@@H](Cc3ccc(C(F)(F)F)cc3)C(=O)N(C)CC(=O)N[C@@H](CCc3cc(F)c(C(F)(F)F)c(F)c3)C(=O)N2C1` [PP1302] was tested, and the “NRAS/KRAS (ratio of KD value for GDP-bound NRAS wild-type protein to KD value for KRAS)” value ([1]; SPR, KD ratio class) was “A (a compound having 10 or more and less than 20 is denoted as A)” and the “HRAS/KRAS (ratio of KD value for GDP-bound HRAS wild-type protein to KD value for KRAS)” value ([2]; SPR, KD ratio class) was “A (a compound having 10 or more and less than 20 is denoted as A)”.

In the case of `CCCN1C(=O)CN(C)C(=O)CNC(=O)[C@H]([C@@H](C)CC)NC(=O)[C@H](CC(C)C)N(C)C(=O)C[C@@H](C(=O)N(C)C)N(C)C(=O)[C@H](C2CCCC2)N(C)C(=O)C2(CCC2)NC(=O)[C@@H]2CCCN2C(=O)[C@H](CCc2ccc(C(F)(F)F)c(Cl)c2)NC(=O)CN(C)C(=O)[C@@H]1Cc1ccc(C(F)(F)F)cc1` [PP0418] ([NMeL]IG[Sar][NPrPhe(4-CF3)][Sar][hPhe(3-Cl-4-CF3)]P[Ac4c][NMeGly(cPent)][NMeD]-NMe2; lactam N-11), the “NRAS/KRAS (ratio of KD value with respect to GDP-bound NRAS wild-type protein to KD value with respect to KRAS)” value ([1]; KD ratio NRAS/KRAS, SPR) is reported as “B (a compound having 3 or more and less than 10 is denoted as B)” and the “HRAS/KRAS (ratio of KD value with respect to GDP-bound HRAS wild-type protein to KD value with respect to KRAS)” value ([2]; KD ratio HRAS/KRAS, SPR) is reported as “C (A compound having a KD ratio of 0.1 or more and less than 3 is denoted as C)”.

In the case of `CCC[C@H]1C(=O)N[C@@H]([C@@H](C)CC)C(=O)N(C)CC(=O)N(C)[C@H]2C/C=C\CCN(C2=O)[C@@H](Cc2ccc(C)cc2)C(=O)N(C)CC(=O)N[C@@H](CCc2ccc(Cl)c(Cl)c2)C(=O)N2C[C@H](OCC)C[C@H]2C(=O)NC2(CC(C)(C)C2)C(=O)N(C)[C@@H](CC2CCC2)C(=O)N(C)[C@H](C(=O)N(C)C)CC(=O)N1C` [PP2755], the “NRAS/KRAS (ratio of KD value with respect to GDP-bound NRAS wild-type protein to KD value with respect to KRAS)” value ([1]; KD ratio NRAS/KRAS, class symbols) is reported as “A (a compound having 10 or more and less than 20 is denoted as A)” and the “HRAS/KRAS (ratio of KD value with respect to GDP-bound HRAS wild-type protein to KD value with respect to KRAS)” value ([2]; KD ratio HRAS/KRAS, class symbols) is reported as “A (a compound having 10 or more and less than 20 is denoted as A)”.

`CCOC[C@H]1C(=O)N[C@@H]([C@@H](C)CC)C(=O)N(C)CC(=O)N(C)[C@H]2C/C=C\CCN(C2=O)[C@@H](Cc2ccc(C(F)(F)F)cc2)C(=O)N(C)CC(=O)N[C@@H](CCc2cc(F)c(C(F)(F)F)c(F)c2)C(=O)N2C[C@@H](C)C[C@H]2C(=O)NC2(CC(C)(C)C2)C(=O)N(C)[C@@H](C2CCCC2)C(=O)N(C)[C@H](C(=O)N(C)CC)CC(=O)N1C` [PP2042] was tested, and the “NRAS/KRAS (ratio of KD value with respect to NRAS to KD value with respect to KRAS)” value ([1]; SPR) was “A (a compound having 10 or more and less than 20 is denoted as A)” and the “HRAS/KRAS (ratio of KD value with respect to HRAS to KD value with respect to KRAS)” value ([2]; SPR) was “A (a compound having 10 or more and less than 20 is denoted as A)”.

For `CCO[C@@H]1C[C@H]2C(=O)NC3(CCC3)C(=O)N(C)[C@@H](C3CCCC3)C(=O)N(C)[C@H](C(=O)N(C)C)CC(=O)N(C)[C@@H](COC)C(=O)N[C@@H]([C@@H](C)CC)C(=O)N(C)CC(=O)N(C)[C@H]3CCCCCN(C3=O)[C@@H](Cc3ccc(F)cc3)C(=O)N(C)CC(=O)N[C@@H](CCc3cc(F)c(C(F)(F)F)c(F)c3)C(=O)N2C1` [PP1193], the “NRAS/KRAS (ratio of KD value with respect to NRAS to KD value with respect to KRAS)” value ([1]; KD ratio, SPR) was “B (a compound having 3 or more and less than 10 is denoted as B)” and the “HRAS/KRAS (ratio of KD value with respect to HRAS to KD value with respect to KRAS)” value ([2]; KD ratio, SPR) was “B (a compound having 3 or more and less than 10 is denoted as B)”.

With `CC[C@H](C)[C@@H]1NC(=O)[C@H](CC(C)C)N(C)C(=O)C[C@@H](C(=O)N2CCOCC2)N(C)C(=O)[C@H](C2CCCC2)N(C)C(=O)C2(CCCC2)NC(=O)[C@@H]2CCCN2C(=O)[C@H](CCc2ccc(C(F)(F)F)c(Cl)c2)NC(=O)CN(C)C(=O)[C@H](Cc2ccc(OC)cc2)N2CCCCC[C@@H](C2=O)N(C)C(=O)CN(C)C1=O` [PP0614] the “NRAS/KRAS (ratio of KD value with respect to GDP-bound NRAS wild-type protein to KD value with respect to KRAS)” value ([1]; KD ratio NRAS/KRAS, SPR) was “B (a compound having 3 or more and less than 10 is denoted as B)” and the “HRAS/KRAS (ratio of KD value with respect to GDP-bound HRAS wild-type protein to KD value with respect to KRAS)” value ([2]; KD ratio HRAS/KRAS, SPR) was “B (a compound having 3 or more and less than 10 is denoted as B)”.

In the case of `CC[C@H](C)[C@@H]1NC(=O)[C@H](CC(C)C)N(C)C(=O)C[C@@H](C(=O)N2CCOCC2)N(C)C(=O)[C@H](C2CCCC2)N(C)C(=O)C2(CCC2)NC(=O)[C@@H]2[C@@H](OCC3CC3)CCN2C(=O)[C@H](CCc2cc(F)c(C(F)(F)F)c(F)c2)NC(=O)CN(C)C(=O)[C@H](Cc2ccc(C(F)(F)F)cc2)N2CCCC[C@@H](C2=O)N(C)C(=O)CN(C)C1=O` [PP1072], the “NRAS/KRAS (ratio of KD value with respect to NRAS to KD value with respect to KRAS)” value ([1]; KD ratio, SPR) is reported as “B (a compound having 3 or more and less than 10 is denoted as B)” and the “HRAS/KRAS (ratio of KD value with respect to HRAS to KD value with respect to KRAS)” value ([2]; KD ratio, SPR) is reported as “B (a compound having 3 or more and less than 10 is denoted as B)”.

For `CCCN1C(=O)[C@@H]2CCN2C(=O)[C@H](C)N(C)C(=O)[C@H]([C@@H](C)CC)NC(=O)[C@H](CC(C)C)N(C)C(=O)C[C@@H](C(=O)N2CCOCC2)N(C)C(=O)[C@H](C2CCCC2)N(C)C(=O)C2(CCCC2)NC(=O)[C@@H]2C[C@@H](O)CN2C(=O)[C@H](CCc2ccc(C(F)(F)F)c(Cl)c2)NC(=O)CN(C)C(=O)[C@@H]1Cc1ccc(C(F)(F)F)cc1` [PP0239], the “NRAS/KRAS (ratio of KD for GDP-bound NRAS wild-type to KD for KRAS)” value ([1]; KD ratio NRAS/KRAS, SPR) was “C (A compound having a KD ratio of 0.1 or more and less than 3 is denoted as C)” and the “HRAS/KRAS (ratio of KD for GDP-bound HRAS wild-type to KD for KRAS)” value ([2]; KD ratio HRAS/KRAS, SPR) was “B (a compound having 3 or more and less than 10 is denoted as B)”.
